According to patent US20080070973A1, “Compounds having activity at the GlyT1 transporter” (priority 2006, published 2008):
Read-outs that look alike come from different tables or passages of the source.

Columns and labels:
GlyT1 transporter = target: T1, GlyT1 transporter (Homo sapiens, UniProt P48067); assay: GlyT1 transporter [3H]-glycine uptake SPA assay in HEK293 cells; format: cell-based; conditions: for IC50: HEK293 cells expressing the Glycine (Type 1) transporter
T1 construct: expressed in transfected cells
T1 sequence (P48067 1-706): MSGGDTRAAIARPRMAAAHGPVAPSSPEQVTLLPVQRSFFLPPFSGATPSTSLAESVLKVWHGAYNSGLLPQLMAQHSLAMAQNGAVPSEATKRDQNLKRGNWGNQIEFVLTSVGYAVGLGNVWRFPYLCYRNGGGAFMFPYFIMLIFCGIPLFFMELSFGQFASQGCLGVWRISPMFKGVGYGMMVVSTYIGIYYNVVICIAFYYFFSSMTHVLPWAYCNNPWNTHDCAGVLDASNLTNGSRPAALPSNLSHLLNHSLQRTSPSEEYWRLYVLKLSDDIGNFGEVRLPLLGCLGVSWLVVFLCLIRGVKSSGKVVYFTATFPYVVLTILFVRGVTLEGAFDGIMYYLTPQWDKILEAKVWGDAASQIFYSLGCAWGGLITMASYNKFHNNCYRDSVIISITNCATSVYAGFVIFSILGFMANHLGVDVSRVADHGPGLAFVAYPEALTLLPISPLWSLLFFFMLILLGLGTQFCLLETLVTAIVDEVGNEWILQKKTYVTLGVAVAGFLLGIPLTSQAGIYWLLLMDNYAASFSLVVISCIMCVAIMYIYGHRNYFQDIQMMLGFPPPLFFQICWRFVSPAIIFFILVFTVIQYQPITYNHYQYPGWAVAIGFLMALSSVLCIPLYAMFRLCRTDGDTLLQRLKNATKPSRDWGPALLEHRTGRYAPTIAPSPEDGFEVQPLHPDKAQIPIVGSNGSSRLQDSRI
Method: The affinities of the compounds of this invention for the GlyT1 transporter were determined by the following assay:
HEK293 cells expressing the Glycine (Type 1) transporter were grown in cell culture medium [DMEM/NUT mix F12 containing 2 mM L-Glutamine, 0.8 mg/mL G418 and 10% heat inactivated fetal calf serum] at 37° C. and 5% CO2. Cells grown to 70-80% confluency in T175 flasks were harvested and frozen. For the assay, cells were defrosted and resuspended at 1.32×10^6 cells/mL in assay buffer [140 mM NaCl, 5.4 mM KCl, 1.8 mM CaCl2, 0.8 mM MgSO4, 20 mM HEPES, 5 mM glucose and 5 mM alanine, pH 7.4]. Compounds were serially diluted either 3-fold or 4-fold in DMSO from a top concentration of 2.5 mM with each compound giving a 11 data point dose-response. 100 nL of compound at each concentration was added to the assay plate. An equal volume of Leadseeker™ WGA SPA beads (12.5 mg/ml suspended in assay buffer) was added to the cell suspension (1.32×106) and 5 uL of the cell/bead suspension transferred to each well of a LV384-well white solid bottom plate (3300 cells/well) containing 100 nL of test compounds. Substrate (5 uL) was added to each well [1:100 dilution of [3H]-glycine stock in assay buffer containing 2.5 uM glycine). Final DMSO concentration was 1% v/v. Data was collected using a Perkin Elmer Viewlux™. pIC50 values were determined using ActivityBase™.

GlyT2 = target: T2, GlyT2 (Homo sapiens, UniProt Q9Y345); assay: Affinity for GlyT1 compared with GlyT2 (statement, no method given); conditions: qualitative statement on the parent compound; no value given
T2 sequence (Q9Y345 1-797): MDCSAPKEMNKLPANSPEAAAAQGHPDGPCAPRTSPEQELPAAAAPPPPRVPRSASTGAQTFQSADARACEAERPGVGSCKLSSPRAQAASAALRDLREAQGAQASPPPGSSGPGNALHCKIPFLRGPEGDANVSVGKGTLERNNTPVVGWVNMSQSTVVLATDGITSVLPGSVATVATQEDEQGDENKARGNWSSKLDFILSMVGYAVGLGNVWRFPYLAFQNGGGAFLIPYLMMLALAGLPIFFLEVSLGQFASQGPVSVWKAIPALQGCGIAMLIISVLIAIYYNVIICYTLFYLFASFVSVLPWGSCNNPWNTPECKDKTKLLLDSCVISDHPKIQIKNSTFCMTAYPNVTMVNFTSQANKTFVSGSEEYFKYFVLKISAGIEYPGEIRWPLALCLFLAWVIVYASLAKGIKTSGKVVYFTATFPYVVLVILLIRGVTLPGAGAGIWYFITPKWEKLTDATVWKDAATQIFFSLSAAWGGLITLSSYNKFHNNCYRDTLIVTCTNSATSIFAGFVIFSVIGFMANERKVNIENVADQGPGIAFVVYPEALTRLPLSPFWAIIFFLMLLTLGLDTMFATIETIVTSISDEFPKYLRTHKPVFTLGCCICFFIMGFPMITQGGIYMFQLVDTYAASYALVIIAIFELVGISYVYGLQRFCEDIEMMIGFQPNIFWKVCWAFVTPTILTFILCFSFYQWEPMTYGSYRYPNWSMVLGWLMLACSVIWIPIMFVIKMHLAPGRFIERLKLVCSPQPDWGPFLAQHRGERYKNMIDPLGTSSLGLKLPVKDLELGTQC

`COc1cc(C(F)(F)F)cc(C(F)(F)F)c1C(=O)NC(c1ccccc1)C(C)(C)N1CCCC1` (stereo not shown) [2-(methyloxy)-N-[2-methyl-1-phenyl-2-(1-pyrrolidinyl)propyl]-4,6-bis(trifluoromethyl)benzamide] was tested, and the “inhibition of the glycine transporter type GlyT1 (result in words)” value (GlyT1 transporter; qualitative statement on the parent compound, no value given) was “inhibitor of the glycine transporter type GlyT1” and the “affinity for GlyT1 relative to GlyT2 (selectivity, result in words)” value (GlyT2) was “greater affinity for GlyT1 than for GlyT2”.

Work on `COc1cc(C(F)(F)F)cc(C(F)(F)F)c1C(=O)N[C@H](c1ccccc1)C(C)(C)N1CCCC1` [R-(−)-2-(Methyloxy)-N-[2-methyl-1-phenyl-2-(1-pyrrolidinyl)propyl]-4,6-bis(trifluoromethyl)benzamide 1,5-heminapadisylate] yielded an IC50 (GlyT1 transporter; n=1, read-out: pIC50 at the GlyT1 transporter (converted)) of 5.01 nM.

Molecule `COc1cc(C(F)(F)F)cc(C(F)(F)F)c1C(=O)N[C@H](c1ccccc1)C(C)(C)N1CCCC1` [R-(−)-2-(Methyloxy)-N-[2-methyl-1-phenyl-2-(1-pyrrolidinyl)propyl]-4,6-bis(trifluoromethyl)benzamide monosuccinate] has an IC50 (GlyT1 transporter; n=5, read-out: average pIC50 at the GlyT1 transporter (converted)) of 15.8 nM.
